Assays:
Gelatinase E (GelE) = Gelatinase E (GelE) (Enterococcus faecalis (strain ATCC 700802 / V583), UniProt Q833V7); assay: Gelatinase E activity assay (FRET peptide substrate); type: biochemical; details: Table 11
Description: Gelatinase E (Gel E) was purified from bacterial culture supernatant from E. faecalis. E. faecalis was cultured aerobically in Todd Hewitt Broth overnight at 37° C. Nucleic acid was precipitated with 0.9% protamine solution, followed by protein precipitation with ammonium sulfate. Resuspended protein pellet was further subjected to purification using FPLC (phenyl Sepharose column). Fractions with gelatinase activity as determined by casein agar assay were pooled and further concentrated.
Different concentrations of test compound were incubated with purified GelE and FRET-based peptide substrate (390 MMP FRET Substrate 1; Anaspec AS-27077) in assay buffer at room temperature for 30 minutes. The fluorescence signal was determined by a plate reader.

recombinant BFT (rBFT) = assay: NFF-3 cleavage assay; type: biochemical, B. fragilis; details: rBFT pre-incubated with compound 30 minutes at 37° C., then NFF-3 for 24 hours; read-out: NFF3 IC50
Description: A NFF-3 cleavage assay was used to test activity of recombinant BFT, before or after addition of various inhibitors. The NFF-3 cleavage assay was previously described by Goulas et al., PNAS, 2011, 108(5) 1856-1861, which is incorporated by reference herein in its entirety.
Initially, recombinant BFT (rBFT) (0.25, 0.5, 1, 2, 4, 8, or 16 μg/mL) was incubated at 37° C. with the fluorogenic substrate NFF-3 (Cayman Chemical) at a concentration of 2.5 μM, 5 μM, or 10 μM. After 18 hours, fluorescence was measured in a microplate fluorimeter.
Next, rBFT was pre-incubated with one or more test compounds at different concentrations for 30 minutes at 37° C. The rBFT-compound mixture was then added to NFF-3 and incubated for 24 hours at 37° C. Fluorescence was then measured in a microplate fluorimeter.

Chain of Gelatinase E (GelE) (Q833V7 193-510 limits assumed): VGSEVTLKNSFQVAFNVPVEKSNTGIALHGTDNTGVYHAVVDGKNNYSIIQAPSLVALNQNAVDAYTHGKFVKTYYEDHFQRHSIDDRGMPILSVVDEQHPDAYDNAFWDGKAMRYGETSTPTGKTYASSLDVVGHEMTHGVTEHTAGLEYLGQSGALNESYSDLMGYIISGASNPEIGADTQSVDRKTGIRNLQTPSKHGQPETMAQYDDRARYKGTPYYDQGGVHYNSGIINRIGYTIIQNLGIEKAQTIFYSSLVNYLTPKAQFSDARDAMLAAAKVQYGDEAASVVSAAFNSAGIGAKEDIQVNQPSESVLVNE

| Structure (SMILES) | IC50 (Gelatinase E (GelE)) [nM] | IC50 (recombinant BFT (rBFT)) [nM] |
| --- | --- | --- |
| CC(C)CN(CC(=O)NO)S(=O)(=O)c1ccc(Oc2ccccc2)cc1 [AA] | 1690 |  |
| CC(C)CN(CC(=O)NO)S(=O)(=O)c1ccc(OCCCF)cc1 [AB] | 2400 |  |
| CC(C)CN(CC(=O)NO)S(=O)(=O)c1ccc(OCC(=O)NCc2ccsc2)cc1 [AC] | 139 |  |
| Cc1ccc(CNC(=O)COc2ccc(S(=O)(=O)N(CC(=O)NO)CC(C)C)cc2)cc1 [AD] | 155 |  |
| COc1ccc(CNC(=O)COc2ccc(S(=O)(=O)N(CC(=O)NO)CC(C)C)cc2)cc1 [AE] | 156 |  |
| CC(C)CN(CC(=O)NO)S(=O)(=O)c1ccc(OCC(=O)NCc2cccc(C(F)(F)F)c2)cc1 [AF] | 113 |  |
| CC(C)CN(CC(=O)NO)S(=O)(=O)c1ccc(OCC(=O)NCc2cccc(Cl)c2)cc1 [AG, N-(3-chlorobenzyl)-2-(4-(N-(2-(hydroxyamino)-2-oxoethyl)-N-isobutylsulfamoyl)phenoxy)acetamide] | 103 |  |
| CC(C)CN(CC(=O)NO)S(=O)(=O)c1ccc(OCC(=O)NCc2ccc(C(F)(F)F)cc2)cc1 [AH] | 238 |  |
| CC(C)CN(CC(=O)NO)S(=O)(=O)c1ccc(OCC(=O)NCc2ccc(Cl)cc2)cc1 [AI] | 164 |  |
| CC(C)CN(CC(=O)NO)S(=O)(=O)c1ccc(OCC(=O)NCc2ccc(F)cc2)cc1 [AJ] | 313 |  |
| Cc1cccc(CNC(=O)COc2ccc(S(=O)(=O)N(CC(=O)NO)CC(C)C)cc2)c1 [AK] | > 10000 |  |
| Cc1ccccc1CNC(=O)COc1ccc(S(=O)(=O)N(CC(=O)NO)CC(C)C)cc1 [AL] | 218 |  |
| CC(C)CN(CC(=O)NO)S(=O)(=O)c1ccc(OCC(=O)NCc2cccc(F)c2)cc1 [AN] | 158 |  |
| CC(C)CN(CC(=O)NO)S(=O)(=O)c1ccc(OCC(=O)NCc2cc(F)cc(F)c2)cc1 [AO] | > 10000 |  |
| CC(C)CN(CC(=O)NO)S(=O)(=O)c1ccc(OCC(=O)NCc2ccccn2)cc1 [AP] | 177 |  |
| CSc1cccc(CNC(=O)COc2ccc(S(=O)(=O)N(CC(=O)NO)CC(C)C)cc2)c1 [AQ] | 119 |  |
| CC(C)CN(CC(=O)NO)S(=O)(=O)c1ccc(OCC(=O)NC(C)c2ccccc2)cc1 (centres unmarked) [AR] | 237 |  |
| CC(C)CN(CC(=O)NO)S(=O)(=O)c1ccc(OCC(=O)NCc2ccccc2)cc1 [B] | 130 |  |
| CC(C)C[C@H](C(=O)NN)N(Cc1cccnc1)S(=O)(=O)c1ccc(O)cc1 [Example 34] |  | 28000 |
| CCC(C)[C@H](C(=O)NO)N(Cc1cccnc1)S(=O)(=O)c1ccc(O)cc1 (some centres unmarked) [Example 36] |  | 240 |
| CC(C)C[C@H](C(=O)NO)N(Cc1cccnc1)S(=O)(=O)c1ccc(C(C)O)cc1 (some centres unmarked) [Example 37] |  | 49700 |
| CC(=O)c1ccc(S(=O)(=O)N(Cc2cccnc2)[C@H](CC(C)C)C(=O)NO)cc1 [Example 38] |  | 6130 |
| CC(C)C[C@H](C(=O)NO)N(Cc1cccnc1)S(=O)(=O)c1cccc(C(N)=O)c1 [Example 39] |  | 79300 |

| Structure (SMILES) | IC50 (Gelatinase E (GelE)) [nM] | IC50 (recombinant BFT (rBFT)) [nM] |
| --- | --- | --- |
| CC(C)C[C@H](C(=O)NO)N(Cc1cccnc1)S(=O)(=O)c1ccc(NS(C)(=O)=O)cc1 [Example 41, (R)—N-hydroxy-4-methyl-2-((4-(methylsulfonamido)-N-(pyridin-3-ylmethyl)phenyl)sulfonamido) pentanamide] |  | 24100 |
| CC(C)C[C@H](C(=O)NO)N(Cc1cccnc1)S(=O)(=O)c1ccc(N)cc1 [Example 43] |  | 2990 |
| CCCC[C@H](C(=O)NO)N(Cc1cccnc1)S(=O)(=O)c1ccc(O)cc1 [Example 44] |  | 130 |
| CC(C)C[C@H](C(=O)NO)N(Cc1cccnc1)S(=O)(=O)c1ccc(C(N)=O)cc1 [Example 46] |  | 6100 |
| CC(C)C[C@H](C(=O)NO)N(Cc1cccnc1)S(=O)(=O)c1ccc(C#N)cc1 [Example 47] |  | 6090 |
| O=C(NO)[C@@H](CC(F)F)N(Cc1cccnc1)S(=O)(=O)c1ccc(O)cc1 [Example 48] |  | 14600 |
| CC(C)C[C@H](C(=O)NO)N(Cc1cccnc1)S(=O)(=O)c1ccc(NC=O)cc1 [Example 49, (R)-2-((4-formamido-N-(pyridin-3-ylmethyl)phenyl)-sulfonamido)-N-hydroxy-4-methyl pentanamide] |  | 8200 |
| O=C(NO)[C@@H](CO)N(Cc1cccnc1)S(=O)(=O)c1ccc(O)cc1 [Example 50] |  | 510 |
| CC(C)C[C@H](C(=O)NO)N(Cc1cccnc1)S(=O)(=O)c1ccc(-c2nnn[nH]2)cc1 [Example 51] |  | > 200000 |
| CC(C)C[C@H](C(=O)NO)N(Cc1cccnc1)S(=O)(=O)c1ccc(C(=N)N)cc1 [Example 52] |  | 27900 |
| COC[C@H](C(=O)NO)N(Cc1cccnc1)S(=O)(=O)c1ccc(O)cc1 [Example 53] |  | 570 |
| COCC[C@H](C(=O)NO)N(Cc1cccnc1)S(=O)(=O)c1ccc(O)cc1 [Example 54] |  | 400 |
| CC(C)CN(CC(=O)NO)S(=O)(=O)c1ccc(O)cc1 [Example 56] |  | 4620 |
| CC[C@H](C(=O)NO)N(Cc1cccnc1)S(=O)(=O)c1ccc(O)cc1F [Example 57] |  | 196 |
| CC[C@H](C(=O)NO)N(Cc1cccnc1)S(=O)(=O)c1ccc(O)c(F)c1 [Example 58] |  | 510 |
| CC[C@H](C(=O)NO)N(Cc1cccnc1)S(=O)(=O)c1ccc(O)c(Cl)c1 [Example 59] |  | 4220 |
| COc1ccc(S(=O)(=O)N(Cc2cccnc2)[C@H](C(=O)NO)C(C)C)cc1 [Example 64] |  | 8280 |
| COc1ccc(S(=O)(=O)N(Cc2ccccc2)[C@H](C(=O)NO)C(C)C)cc1F [Example 65] |  | 28500 |
| O=C(NO)[C@@H](Cc1cocn1)N(Cc1cccnc1)S(=O)(=O)c1ccc(O)cc1 [Example 67] |  | 4250 |
| CC(C)[C@@H](C(=O)NO)N(Cc1ccccc1)S(=O)(=O)c1ccc(O)c(F)c1 [Example 68] |  | 50100 |
| CC(C)[C@@H](C(=O)NO)N(Cc1ccccc1)S(=O)(=O)c1cccc(C(F)(F)F)c1 [Example 69] |  | 691000 |
| CC[C@H](C(=O)NO)N(Cc1cccnc1)S(=O)(=O)CCNC(=O)CSC [Example 70] |  | 164000 |
| CC(C)[C@@H](C(=O)NO)N(Cc1ccccc1)S(=O)(=O)c1c(F)c(F)c(F)c(F)c1F [Example 72] |  | 637000 |

| Structure (SMILES) | IC50 (Gelatinase E (GelE)) [nM] | IC50 (recombinant BFT (rBFT)) [nM] |
| --- | --- | --- |
| COc1ccc(S(=O)(=O)N(Cc2cccnc2)CC(O)CSC(C)=O)cc1 (centres unmarked) [Example 75] |  | > 100000 |
| CC(C)[C@H](C(=O)NO)N(Cc1cccnc1)S(=O)(=O)c1ccsc1 [Example 76] |  | 9930 |
| O=C(NO)[C@@H](Cc1cccs1)N(Cc1ccc(OC(F)(F)F)cc1)S(=O)(=O)c1ccc(O)cc1 [Example 77] |  | 150 |
| CCC[C@@H](C(=O)NO)N(CCc1ccccn1)S(=O)(=O)c1ccc(O)cc1 [Example 78] |  | 216 |
| O=C(NO)[C@@H](Cc1cccs1)N(Cc1ccc(Cl)cc1)S(=O)(=O)c1ccc(O)cc1 [Example 80] |  | 290 |
| CCOc1ccc(CN([C@H](Cc2cccs2)C(=O)NO)S(=O)(=O)c2ccc(O)cc2)cc1 [Example 81] |  | 556 |
| O=C(NO)[C@@H](Cc1cccs1)N(Cc1cccc(Cl)c1)S(=O)(=O)c1ccc(O)cc1 [Example 83] |  | 530 |
| Cc1cccc(CN([C@H](Cc2cccs2)C(=O)NO)S(=O)(=O)c2ccc(O)cc2)c1 [Example 84] |  | 491 |
| COc1cccc(CN([C@H](Cc2cccs2)C(=O)NO)S(=O)(=O)c2ccc(O)cc2)c1 [Example 89] |  | 185 |
| Cc1ccc(CN([C@H](Cc2cccs2)C(=O)NO)S(=O)(=O)c2ccc(O)cc2)cc1 [Example 90] |  | 236 |
| CSCC[C@H](C(=O)NO)N(CCc1ccccc1)S(=O)(=O)c1ccc(O)cc1 [Example 92] |  | 99 |
| COc1ccc(C(C(=O)NO)N(Cc2ccc3[nH]ccc3c2)S(=O)(=O)c2ccc(O)cc2)cc1 (centres unmarked) [Example 93] |  | 117 |
| O=C(NO)[C@@H](Cc1cccs1)N(Cc1ccc(OC(F)F)cc1)S(=O)(=O)c1ccc(O)cc1 [Example 98] |  | 1400 |
| O=C(NO)[C@@H](Cc1cccs1)N(Cc1ccc(OCCF)cc1)S(=O)(=O)c1ccc(O)cc1 [Example 100] |  | 150 |
| C[C@H](C(=O)NO)N(CCc1ccccc1)S(=O)(=O)c1ccc(O)cc1 [Example 105] |  | 90 |
| CCC[C@H](C(=O)NO)N(CCc1ccc2[nH]ccc2c1)S(=O)(=O)c1ccc(O)cc1 [Example 112] |  | > 10000 |
| C=CCOc1ccc(S(=O)(=O)N(CC(=O)NO)CC(C)C)cc1 [R] | 2420 |  |
| COc1ccc(S(=O)(=O)N(CC(=O)NO)Cc2ccccc2)cc1 [S] | 204 |  |
| COc1ccc(-n2ccc(CCC(=O)NO)n2)cc1 [V] | 12700 |  |
| CC(C)CN(CC(=O)NO)S(=O)(=O)c1ccc(OCC(F)F)cc1 [X] | 180 |  |
| COCCN(CC(=O)NO)S(=O)(=O)c1ccc(OC)cc1 [Y] | 6760 |  |
| CC(C)CN(CC(=O)NO)S(=O)(=O)c1ccc(OCCF)cc1 [Z] | 246 |  |

Source: US20230357139A1, “SMALL MOLECULE INHIBITORS OF BACTERIAL TOXINS” (Artizan Biosciences, Inc., priority 2020, published 2023)
